According to US20240352055A1, “PROCESS FOR THE MANUFACTURE OF (2S,3S,4S,5R,6S)-3,4,5-TRIHYDROXY-6-(((4AR,10AR)-7-HYDROXY-1-PROPYL-1,2,3,4,4A,5,10,10A-OCTAHYDROBENZO[G]QUINOLIN-6-YL)OXY)TETRAHYDRO-2H-PYRAN-2-CARBOXYLIC ACID” (H. LUNDBECK A/S, priority 2019, published 2024):
pEC50: −log10 of the molar value. Like-named read-outs stand apart in the source and are kept apart here.

How the values were obtained:
human 5-HT2B receptor = human 5-HT2B receptor (Homo sapiens (Human), UniProt P41595); experiment: 5-HT2B agonist activity assay (IP1 production, HTRF); type: cell-based; conditions: for 5-HT2B agonist effect at single concentration: percent of control response to 1 μM 5-HT; for pEC50: CHO cells expressing human 5-HT2B, IP1 production
Chain of human 5-HT2B receptor (P41595 whole entry): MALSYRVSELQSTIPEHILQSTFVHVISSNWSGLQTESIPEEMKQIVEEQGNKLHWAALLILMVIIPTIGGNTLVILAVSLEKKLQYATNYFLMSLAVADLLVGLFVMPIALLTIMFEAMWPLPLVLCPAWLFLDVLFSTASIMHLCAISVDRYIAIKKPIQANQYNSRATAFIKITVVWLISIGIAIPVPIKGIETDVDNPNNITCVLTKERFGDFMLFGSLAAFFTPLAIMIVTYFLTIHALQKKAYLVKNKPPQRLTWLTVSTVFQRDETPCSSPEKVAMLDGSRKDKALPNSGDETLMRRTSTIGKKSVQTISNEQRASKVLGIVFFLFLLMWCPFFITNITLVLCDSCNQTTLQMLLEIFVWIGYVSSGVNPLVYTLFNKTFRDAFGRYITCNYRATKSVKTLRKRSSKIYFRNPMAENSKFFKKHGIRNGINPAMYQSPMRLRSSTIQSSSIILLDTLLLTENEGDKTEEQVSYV
Description: Evaluation of the agonist activity of compounds (I), (Ia)(Ib), (Ic), and (Id) at the human 5-HT2B receptor was performed by Eurofins/Cerep (France) measuring the compound effects on inositol monophosphate (IP1) production using the HTRF detection method. Briefly, the human 5-HT2B receptor was expressed in transfected CHO cells. The cells were suspended in a buffer containing 10 mM Hepes/NaOH (pH 7.4), 4.2 mM KCl, 146 mM NaCl, 1 mM CaCl2, 0.5 mM MgCl2, 5.5 mM glucose and 50 mM LiCl, then distributed in microplates at a density of 4100 cells/well and incubated for 30 minutes at 37° C. in the presence of buffer (basal control), test compound or reference agonist. For stimulated control measurement, separate assay wells contained 1 μM 5-HT. Following incubation, the cells were lysed and the fluorescence acceptor (fluorophen D2-labeled IP1) and fluorescence donor (anti-IP1 antibody labeled with europium cryptate) were added. After 60 minutes at room temperature, the fluorescence transfer was measured at lambda (Ex) 337 nm and lambda(Em) 620 and 665 nm using a microplate reader (Rubystar, BMG). The IP1 concentration was determined by dividing the signal measured at 665 nm by that measured at 620 nm (ratio). The results were expressed as a percent of the control response to 1 μM 5-HT. The standard reference agonist was 5-HT, which was tested in each experiment at several concentrations to generate a concentration-response curve from which its EC50 value is calculated as described above for dopamine functional assays.

[1] = PK experiments in rats: plasma compound (I) after oral dosing of prodrugs; type: in vivo, Han Wistar rats; conditions: Wistar rats, oral dosing of the prodrug
Description: Plasma was placed on water-ice following collection. Final storage at approximately −70° C.
Instrumentation Used for Analysis of Compound (I) from Dosing Compound (Ia):
Mobile phase B: Acetonitrile. […] Flow rate 0.5 mL/min.
The rats had unrestricted access to the diet.
Instrumentation Used for Analysis of Compound (I) from Dosing of Compound (Ib):
Mobile phase B: Acetonitrile+0.2% formic acid. […] Flow rate 0.3 mL/min.
Dosing and blood sampling for compound (Ic): Han Wistar rats were supplied by Envigo, UK. […] The rats received a standard laboratory diet Teklad 2014C. The rats had unrestricted access to the diet. […] Rats were given 494 μg/kg (Ic).

human D2 receptor = human D2 receptor (Homo sapiens (Human), UniProt P14416); experiment: Dopamine D2 receptor agonism, calcium mobilization assay; type: cell-based; conditions: HEK293/G15 cells expressing human D2 receptor; calcium flux
Chain of human D2 receptor (P14416 whole entry): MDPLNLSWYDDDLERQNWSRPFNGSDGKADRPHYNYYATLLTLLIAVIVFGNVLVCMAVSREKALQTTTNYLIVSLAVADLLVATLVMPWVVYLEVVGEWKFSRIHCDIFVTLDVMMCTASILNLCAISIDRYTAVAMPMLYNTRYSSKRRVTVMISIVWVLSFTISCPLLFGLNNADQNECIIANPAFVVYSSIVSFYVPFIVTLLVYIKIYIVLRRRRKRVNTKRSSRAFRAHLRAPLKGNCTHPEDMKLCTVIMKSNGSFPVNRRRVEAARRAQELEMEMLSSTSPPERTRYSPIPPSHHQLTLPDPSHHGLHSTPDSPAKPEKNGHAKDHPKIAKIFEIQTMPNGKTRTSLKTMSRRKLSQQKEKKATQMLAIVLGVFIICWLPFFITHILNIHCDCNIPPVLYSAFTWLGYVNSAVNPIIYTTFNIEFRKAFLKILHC
Description: Dopamine D2 receptor agonism was measured using a calcium mobilization assay protocol developed by HD Biosciences (China). Briefly, HEK293/G15 cells expressing human D2 receptor were plated at a density of 15000 cells/well in clear-bottomed, Matrigel-coated 384-well plates and grown for 24 hours at 37° C. in the presence of 5% CO2. The cells were incubated with calcium-sensitive fluorescent dye, Fluo8, for 60-90 minutes at 37° C. in the dark. Test compounds were prepared at 3-fold concentrated solution in 1×HBSS buffer with Ca^2. and Mg^2+. Calcium Flux signal was immediately recorded after compounds were added from compound plate to cell plate at FLIPR (Molecular Devices). The fluorescence data were normalized to yield responses for no stimulation (buffer) and full stimulation (1 μM of dopamine) of 0% and 100%. stimulation, respectively. Test compound potency (EC50) was estimated by nonlinear regression using the sigmoidal dose-response (variable slope) using Xlfit 4 (IDBS, Guildford, Surrey, UK, model 205).
where y is the normalized ratio measurement for a given concentration of test compound, x is the concentration of test compound, A is the estimated efficacy at infinite compound dilution, and B is the maximal efficacy. C is the EC50 value and D is the Hill slope coefficient. EC50 estimates were obtained from independent experiment and the logarithmic average was calculated.

[2] = Liu et al., Bioorganic Med. Chem. (2008); cited from earlier work
human D1 receptor = human D1 receptor (Homo sapiens (Human), UniProt P21728); experiment: Dopamine D1 receptor agonism, HTRF cAMP assay; type: cell-based
Chain of human D1 receptor (P21728 whole entry): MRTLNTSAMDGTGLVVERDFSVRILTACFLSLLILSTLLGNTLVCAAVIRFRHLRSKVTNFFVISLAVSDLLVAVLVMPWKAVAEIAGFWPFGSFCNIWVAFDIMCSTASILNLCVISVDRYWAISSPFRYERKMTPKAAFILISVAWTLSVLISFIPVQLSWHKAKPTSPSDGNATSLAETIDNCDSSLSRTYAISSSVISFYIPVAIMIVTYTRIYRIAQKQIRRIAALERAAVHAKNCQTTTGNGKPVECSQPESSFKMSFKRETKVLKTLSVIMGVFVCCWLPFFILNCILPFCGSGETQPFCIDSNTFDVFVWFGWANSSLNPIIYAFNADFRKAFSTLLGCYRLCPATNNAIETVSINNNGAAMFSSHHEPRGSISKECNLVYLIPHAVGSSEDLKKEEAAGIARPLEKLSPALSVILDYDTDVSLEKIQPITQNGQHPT
Description: Dopamine D1 receptor agonism was measured using a HTRF cAMP from CisBio using the protocol developed by HD Biosciences (China). Briefly, the assay is a homogeneous time resolved-fluorescence resonance energy transfer (HTRF) assay that measures production of cAMP by cells in a competitive immunoassay between native cAMP produced by cells and cAMP-labeled with XL-665. A cryptate-labeled anti-cAMP antibody visualizes the tracer. The assay was performed in accordance with instructions from manufacturer.
Test compounds were added to wells of microplates (384 format). HEK-293 cells expressing the human D1 receptor were plated at 1000 cells/well and incubated 30 minutes at room temperature. cAMP-d2 tracer was added to wells and followed by addition of Anti-cAMP antibody-cryptate preparation and incubated for 1 hour at room temperature in dark. HTRF cAMP was measured by excitation of the donor with 337 nm laser (the “TRF light unit”) and subsequent (delay time 100 microseconds) measurement of cryptate and d2 emission at 615 nm and 665 nm over a time window of 200 microseconds with a 2000 microseconds time window between repeats/100 flashes). HTRF measurements were performed on an Envision microplate reader (PerkinElmer). The HTRF signal was calculated as the emission-ratio at 665 nm over 615 nm. The HTRF ratio readout for test compounds was normalized to […] and 100% stimulation using control wells with DMSO-solvent or 30 μM dopamine. Test compound potency (EC50) was estimated by nonlinear regression using the sigmoidal dose-response (variable slope) using Xlfit 4 (IDBS, Guildford, Surrey, UK, model 205).
y=(A+((B−A)/(1+((C/x)^D))))
where y is the normalized HTRF ratio measurement for a given concentration of test compound, x is the concentration of test compound, A is the estimated efficacy at infinite compound dilution, and B is the maximal efficacy. C is the EC50 value and D is the Hill slope coefficient. EC50 estimates were obtained from an independent experiment and the logarithmic average was calculated.

[3] = Conversion of compound (Id) to compound (I) in human hepatocytes; type: in vitro ADME; conditions: 1 μg/mL, 37° C., up to 60 minutes
Description: (§1) The cell concentration at incubation was 1×10^6 viable cells/mL. The incubations were performed in glass tubes at 37° C. with a total incubation volume of 3.5 mL and with duplicate incubations for each test item. The 3.5 mL of hepatocyte suspension was equilibrated for 10 minutes in a water bath set to 37° C. where after the incubations were initiated by adding 3.5 μL of a stock solution of the test item in DMSO (Dimethyl sulfoxide) and gently inverting the tubes. The final solvent concentration in the incubations was 0.1% DMSO. Samples of 600 μL were withdrawn from the incubations at the pre-determined time points of 0.25, 5, 15, 30 and 60 minutes after ensuring homogeneity of hepatocyte suspensions. The withdrawn volume was added to 1 mL Nunc cryotubes on wet ice containing 60 μL of ice-cold ascorbic acid (100 mg/mL) and 30 μL of ice cold 100 mM saccharic acid 1.4-lactone in 0.5 M citric acid. The tubes were mixed and 35 μL of a solution of ice cold 20% formic acid was added. The tubes were mixed thoroughly and stored at −80° C. awaiting analysis.

[4] = Conversion of compound (Id) to compound (I) in rat hepatocytes; type: in vitro ADME; conditions: 1 μg/mL, 37° C., up to 60 minutes
Description: as §1

[5] = Conversion of compound (Id) to compound (I) in fresh rat blood; type: in vitro ADME; conditions: 1 μg/mL, 37° C., up to 60 minutes
Description: (§2) Conversion of (Id) in human blood (average of 3 donors) and rat blood (average of […]) to (1) was shown in fresh blood at 37° C. spiked with 1 μg/mL of (Id). (1) was measured at 0, 5, 15, 30 and 60 minutes in isolated plasma. Analysis method and Instrumentation as described in Examples 9 and 10 below in the section “Instrumentation used for analysis of compound (I) from dosing of compounds (Ic) and (d).”

[6] = In vivo conversion of compound (Id) to compound (I) after oral dosing in minipigs
[7] = Conversion of compound (Id) to compound (I) in fresh human blood; type: in vitro ADME; conditions: 1 μg/mL, 37° C., up to 60 minutes
Description: as §2

locomotor activity = experiment: Rat locomotor activity (hyperactivity) assay, open field; type: in vivo, male CD rats; conditions: for Onset of increased locomotor activity post-administration / End of locomotor effect, time post administration: (Id) 10 to 300 μg/kg p.o.; for End of locomotor effect, time post administration: recording to the 415-minute time point
Description: In total, 206 male CD rats (Charles River, Germany) weighing 200-250 grams (165-190 grams upon arrival) were used in the study. Animals were housed at a standard temperature (22±1° C.) and in a light-controlled environment (lights on from 7 am to […]) with ad libitum access to food and water. The experiment described below was performed in accordance with the standard operating procedures of Charles River Discovery Research Services Finland Ltd. and in accordance with the national Animal Experiment Board of Finland (Eläinkoelautakunta, ELLA) authority on animal testing.
The test device is a square Plexiglass-arena (measuring 40×40×40 cm), in which the movement paths of the rats are recorded by an activity monitor (Med. Associates Inc.). Before the test period is initiated, rats are habituated to their test cage for 60 minutes. Upon completion of habituation, animals were treated with either compound or vehicle and placed back into the open field apparatus. The main test parameter measured is ambulatory distance (recorded in 5 minute segments). Overall time of measurement after receiving initial treatment was 360 minutes. Total follow up period in the study was 420 minutes, including 60 minutes of habituation.
Apomorphine and pramipexole were also concomitantly tested in this assay as comparators (i.e. known standard-of-care (SoC) in the Parkinson's Disease field), and plasma concentration was analyzed for apomorphine.

[8] = in man after oral dosing; cited from earlier work
[9] = HEK-293 cells expressing human D1 receptor, cAMP HTRF, read-out: D1 EC50
[10] = apomorphine 3 mg/kg s.c., pramipexole 0.3 mg/kg s.c.

Structure (SMILES)	Plasma profile of compound (I) after oral dosing (in words) [1]	pEC50 (human D2 receptor)	pEC50 (human 5-HT2B receptor)	pEC50 (human D1 receptor; [9])	Onset of increased locomotor activity post-administration (locomotor activity; [10])	also measured
CCCN1CCC[C@@H]2Cc3c(ccc(OC(=O)C(C)(C)C)c3OC(=O)C(C)(C)C)C[C@H]21 [(Ic)]	extremely low	–	–	–	–	5-HT2B agonist effect at single concentration (human 5-HT2B receptor; @10 μM): −5%@10 μM
CCCN1CCC[C@@H]2Cc3c(ccc(O)c3O)C[C@H]21 [Compound (I), (4aR,10aR)-1-Propyl-1,2,3,4,4a,5,10,10a-octahydro-benzo[g]quinoline-6,7-diol]	–	8.89	5.54	8.48	–	Oral bioavailability (in words) [2]: low oral bioavailability
CCCN1CCC[C@@H]2CC3=C(CCCC3=O)C[C@H]21 [Compound (Ia)]	early and high peak concentrations of compound (I)	< 6.00	< 5.22	< 6.00	–	5-HT2B agonist effect at single concentration (human 5-HT2B receptor; @30 μM): 58%
CCCN1CCC[C@@H]2Cc3c(ccc4c3OCO4)C[C@H]21 [Compound (Ib)]	early and high peak concentrations of compound (I)	7.34	8.42	–	–	5-HT2B receptor agonism (in words) (human 5-HT2B receptor): agonist of the 5-HT2B receptor; pEC50 (human D1 receptor): < 6.00
CCCN1CCC[C@@H]2Cc3c(ccc(O)c3O[C@@H]3O[C@H](C(=O)O)[C@@H](O)[C@H](O)[C@H]3O)C[C@H]21 [Compound (Id), (2S,3S,4S,5R,6S)-3,4,5-trihydroxy-6-(((4aR,10aR)-7-hydroxy-1-propyl-1,2,3,4,4a,5,10,10a-octahydrobenzo[g]quinolin-6-yl)oxy)tetrahydro-2H-pyran-2-carboxylic acid]	slower absorption rate avoiding rapid peak concentrations accompanied by a sustained exposure of compound (I) in plasma	5.96	–	5.57	~2 h	Conversion to compound (I) [3]: time dependent conversion; Conversion to compound (I) [4]: time dependent conversion; Conversion to compound (I) [5]: time dependent conversion; In vivo conversion to compound (I) [6]: observed; Conversion to compound (I) [7]: time dependent conversion; End of locomotor effect, time post administration (locomotor activity; apomorphine 3 mg/kg s.c.): lasting until the end of recording; Total distance travelled (locomotor activity; versus vehicle, (Id) 10-300 μg/kg p.o., apomorphine 3 mg/kg s.c., pramipexole 0.3 mg/kg s.c.): significantly increased activity
CCCN[C@H]1CCc2nc(N)sc2C1 [Pramipexole, pramipexole]	–	–	–	–	about 1 hours	Locomotor effect gone, time after its appearance (locomotor activity; pramipexole 0.3 mg/kg s.c., at the 270-minute time point): 2.5 h
CCCc1cc2c(s1)CN[C@@H]1CCc3cc(OC(C)=O)c(OC(C)=O)cc3[C@@H]21 [adrogolide]	–	–	–	–	–	Oral bioavailability [8]: ~4%
CN1CCc2cccc3c2[C@H]1Cc1ccc(O)c(O)c1-3 [apomorphine]	–	–	–	–	immediate	End of locomotor effect, time post administration (locomotor activity; apomorphine 3 mg/kg s.c.): 1.5 h
